In ChEMBL document CHEMBL1144331, “Uric acid may inhibit glucose-induced insulin secretion via binding to an essential arginine residue in rat pancreatic beta-cells” (2005):

Experiments:
Rattus norvegicus [1] = test: Insulin release in rat pancreatic beta-cells after 15 minutes of administration at 1 mM was measured; type: functional
Rattus norvegicus [2] = test: Insulin release in rat pancreatic beta-cells (PBS-rinsing of the islets) after 15 minutes of administration at 1 mM was measured; type: functional
Rattus norvegicus [3] = species: Rattus norvegicus; test: Acid dissociation constant was determined
Rattus norvegicus [4] = test: Insulin release in rat pancreatic beta-cells after 15 minutes of administration of the K-salt of compound at 1 mM was measured; type: functional
Rattus norvegicus [5] = test: Insulin release in rat pancreatic beta-cells after 15 minutes of administration of the NH4-salt of compound at 1 mM was measured; type: functional
Rattus norvegicus [6] = test: Insulin release in rat pancreatic beta-cells after 15 minutes of administration of the Na-salt of compound at 1 mM was measured; type: functional

SMILES	Insulin release (Rattus norvegicus [1]) [ng/islet/h]	other results
O=c1[nH]cnc2nc[nH]c12 [HYPOXANTHINE]	8.44	–
O=c1[nH]c(=O)c2nc[nH]c2[nH]1 [XANTHINE]	3.5	Insulin release (Rattus norvegicus [2]): 7.72 ng/islet/h; pKa (Rattus norvegicus [3]): 7.7
NC(N)N.O=C1NC(O)Nc2[nH]c(O)nc21 (stereo not drawn)	8.39	–
Cn1c(O)nc2[nH]c(=O)[nH]c(=O)c21	8.04	–
O=C1NC(=O)C(O)(O)C(=O)N1	0.39	–
Oc1nc(O)c2nc(O)[nH]c2n1 [URIC ACID]	1.65	Insulin release (Rattus norvegicus [4]): 1.68 ng/islet/h; Insulin release (Rattus norvegicus [5]): 1.66 ng/islet/h; pKa (Rattus norvegicus [3]): 5.4; Insulin release (Rattus norvegicus [6]): 1.7 ng/islet/h
Cn1c(=O)[nH]c2[nH]c(=O)[nH]c2c1=O	7.92	–
O=c1[nH]c(=O)c2nn[nH]c2[nH]1	7.92	–
CN1C(=O)c2nc(O)[nH]c2NC1O.NC(N)N (stereo not drawn)	8.75	–
Cn1c(=O)c2[nH]c(=O)[nH]c2n(C)c1=O	8.48	–
Cn1c(O)nc2c1C(=O)NC(O)N2.NC(N)N (stereo not drawn)	8.55	–
O=C(O)c1nc(=O)[nH]c(=O)[nH]1 [OTERACIL]	8.26	–
